The assay addresses T1, human IDO1 protein (Homo sapiens, UniProt P14902).
T1 construct: purchased ChemPartner Lot; No. 20160706
As to the kind of experiment: Enzymatic IDO1 assay (Absorbance 321 assay). In kind it is biochemical. To be noted: for Inhibition ratio (%) @ 20 μM / inhibition at 20 µM: 20 μM compound; for Avg_Inh (%) @ 50uM: average inhibition, Table S2; for Background (%): background signal of the compound in the absorbance assay; for inhibition at 20 µM: read-out: Inhibition ratio (%) @ 20 μM. As for the experimental part: The standard assay mixture contained modified potassium phosphate buffer at pH 6.5, 100 μM L-tryptophan (Sigma, Cat. […] No. […]). […] Then the assay plate was read at OD321 kinetically in Spectramax. […] Fit the data in […]5.0 software to obtain IC50-values using Equation (2): (2) Y=Bottom+Top-Bottom/1+10^(logIC50-X)×HillSlope where Y stands for inhibition percentage and X stands for compound concentration. All determinations were carried out in duplicate.

Experimental findings from paper PMC5884943, “Discovery of Novel Inhibitors of Indoleamine 2,3-Dioxygenase 1 Through Structure-Based Virtual Screening” (Frontiers in Pharmacology, 2018) are described below.

T1 sequence (P14902 whole entry): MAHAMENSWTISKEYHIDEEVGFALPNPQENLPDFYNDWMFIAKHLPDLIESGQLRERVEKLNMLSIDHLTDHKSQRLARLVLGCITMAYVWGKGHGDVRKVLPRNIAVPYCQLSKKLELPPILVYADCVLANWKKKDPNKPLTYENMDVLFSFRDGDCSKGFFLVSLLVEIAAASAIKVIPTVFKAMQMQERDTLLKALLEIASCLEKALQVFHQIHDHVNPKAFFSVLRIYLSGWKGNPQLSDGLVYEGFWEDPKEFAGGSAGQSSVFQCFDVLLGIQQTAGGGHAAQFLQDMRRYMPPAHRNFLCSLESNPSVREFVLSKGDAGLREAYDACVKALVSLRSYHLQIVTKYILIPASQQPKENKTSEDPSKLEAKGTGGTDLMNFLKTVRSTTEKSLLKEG

`Nc1ccc(Br)cc1C(O)c1ccc(Cl)cc1` (stereo not drawn) [DC-I032]: the “Inhibition ratio (%) @ 20 μM” value came to 25.26%, the “Avg_Inh (%) @ 50uM” value was 63.02% and the “Background (%)” value is 33.85%.

In the case of `O=C(COC(=O)c1ccc2ccccc2n1)c1ccc(Cl)cc1` [DC-I046], the “Inhibition ratio (%) @ 20 μM” value worked out at 28.10%, the “Avg_Inh (%) @ 50uM” value is on record as 63.18% and the “Background (%)” value stood at 44.38%.

As to `Cc1cc(-c2cccs2)c2c(N)c(C(=O)NCCc3c[nH]c4ccccc34)sc2n1` [DC-I079], the “Inhibition ratio (%) @ 20 μM” value worked out at 36.42%, the “Avg_Inh (%) @ 50uM” value amounted to 85.60% and the “Background (%)” value was 60.62%.

For `O=C(CSc1nnc(COc2ccc(Cl)cc2Cl)o1)Nc1ccccn1` [DC-I090], the “Inhibition ratio (%) @ 20 μM” value was 41.43%, the “Avg_Inh (%) @ 50uM” value was determined as 95.14% and the “Background (%)” value was 34.84%.

As for `Cc1cccc(-c2nnc(SCC(=O)Nc3c(C)cc(C)cc3C)o2)c1` [DC-I102], the “Inhibition ratio (%) @ 20 μM” value amounted to 15.17%, the “Avg_Inh (%) @ 50uM” value came out at 80.83% and the “Background (%)” value amounted to 43.32%.

For the molecule `CC(=O)c1ccc(N2COc3ccc4ccccc4c3C2)cc1` [DC-I02801], the inhibition at 20 µM worked out at 17.8%.

Consider `CC(=O)Nc1cccc2ccc3c(c12)CN(Cc1ccccc1)CO3` [DC-I02803], for which the inhibition at 20 µM is -11.2%. Also, under “SAR discussion”, the “IDO1 inhibitory activity (in words)” value is “inactive”.

For the molecule `O=C(NC(=S)Nc1c(O)ccc2ccccc12)c1ccccc1I` [DC-I02807], the inhibition at 20 µM was found to be 59.6%. In addition, for the setting “IDO1 enzymatic level”, the half-maximal inhibitory concentration (IC50) was found to be 25 µM.

On to `COc1ccc(C(=O)NC(=S)Nc2cccc3cc(O)ccc23)cc1OC` [DC-I02809], for which the inhibition at 20 µM is 17.6%.

Regarding `O=C(NC(=S)Nc1cccc2cc(O)ccc12)c1ccco1` [DC-I02810], the inhibition at 20 µM came to 15.6%.

Consider `CCCCOc1cccc(-c2c(O)ccc3ccccc23)c1` [DC-I02811], for which the inhibition at 20 µM came out at 8.19%.

As to `CC(=O)N(C)c1ccc(-c2c(O)ccc3ccccc23)cc1` [DC-I02812], the inhibition at 20 µM came out at 4.69%.

In the case of `Oc1ccc2ccccc2c1Sc1nnnn1-c1ccccc1` [DC-I02813], the inhibition at 20 µM was found to be 15.6%.

For the molecule `Nc1ncnc2sc3c(c12)CCC3` [DCI-001], the “Avg_Inh (%) @ 50uM” value was -9.13% and the “Background (%)” value is 42.64%.

Consider `c1ccc2cc(OCc3nc4ccccc4s3)ccc2c1` [DCI-002], for which the “Avg_Inh (%) @ 50uM” value is 81.62% and the “Background (%)” value was 44.08%.

For `O=C(OCc1ccc(Cl)cc1)c1cc2ccccc2cc1O` [DCI-003], the “Avg_Inh (%) @ 50uM” value is 35.38% and the “Background (%)” value is listed as 51.94%.

In the case of `Clc1ccc2[nH]cc(-c3nnnn3-c3ccccc3)c2c1` [DCI-004], the “Avg_Inh (%) @ 50uM” value is 49.29% and the “Background (%)” value was determined as 38.90%.

As for `COc1ccc(CNC(=O)COc2ccc3ccccc3c2)cc1` [DCI-005], the “Avg_Inh (%) @ 50uM” value turned out to be 11.86% and the “Background (%)” value is given as 36.51%.

For `CC(=O)Nc1ccc(NC(=O)C2CC(=O)N(c3ccccc3)C2)cc1` (stereo not drawn) [DCI-006], the “Avg_Inh (%) @ 50uM” value turned out to be 2.62% and the “Background (%)” value is reported as 34.97%.

Regarding `N#Cc1c(SCC(N)=O)nc2c(c1-c1cccnc1)CCC2` [DCI-007], the “Avg_Inh (%) @ 50uM” value was -0.85% and the “Background (%)” value was determined as 44.80%.

In the case of `COc1cccc(-c2[nH]nc3c2C(c2ccccc2F)C(C#N)=C(N)O3)c1` (stereo not drawn) [DCI-008], the “Avg_Inh (%) @ 50uM” value turned out to be 22.90% and the “Background (%)” value is reported as 42.25%.

In the case of `Nc1ccccc1/C=C1/C(=O)Nc2ccccc21` [DCI-009], the “Avg_Inh (%) @ 50uM” value was 12.24% and the “Background (%)” value stood at 52.98%.

Regarding `O=c1cnc2ccccc2n1Cc1cccc(Cl)c1` [DCI-010], the “Avg_Inh (%) @ 50uM” value stood at 18.26% and the “Background (%)” value was 46.13%.

As for `COc1ccc(/C=C\c2nccc3ccccc23)cc1OC` [DCI-011], the “Avg_Inh (%) @ 50uM” value was found to be 2.22% and the “Background (%)” value worked out at 51.96%.

As to `Cc1cc(=O)oc2cc(OCCSc3ccccc3)ccc12` [DCI-012], the “Avg_Inh (%) @ 50uM” value turned out to be 42.86% and the “Background (%)” value turned out to be 56.72%.

In the case of `Cc1ccc(C)c(C(=O)CSc2ncnc3nc[nH]c23)c1` [DCI-013], the “Avg_Inh (%) @ 50uM” value turned out to be 4.76% and the “Background (%)” value is 38.66%.

Consider `Cc1ccc(C(C)C)cc1C(=O)CC1(O)C(=O)N(C)c2ccc(Br)cc21` (stereo not drawn) [DCI-014], for which the “Avg_Inh (%) @ 50uM” value was found to be 28.34% and the “Background (%)” value is recorded as 41.98%.

Take `O=C(NCC1CCCO1)c1ccc(COc2ccc3ccccc3c2)cc1` (stereo not drawn) [DCI-015]: the “Avg_Inh (%) @ 50uM” value was found to be 20.11% and the “Background (%)” value was determined as 40.12%.

`COc1ccc(C(N)=O)cc1NS(=O)(=O)c1cccc2cccnc12` [DCI-016]: the “Avg_Inh (%) @ 50uM” value stood at 5.08% and the “Background (%)” value is on record as 38.92%.

As for `Cc1sc2ncnc(SCC(=O)Nc3ccc(S(N)(=O)=O)cc3)c2c1C` [DCI-017], the “Avg_Inh (%) @ 50uM” value is 37.65% and the “Background (%)” value was 48.33%.

In the case of `CC(O)CNCc1ccc(OCc2ccc3c(c2)OCCO3)cc1` (stereo not drawn) [DCI-018], the “Avg_Inh (%) @ 50uM” value is reported as -2.06% and the “Background (%)” value was determined as 34.42%.

In the case of `c1csc(CNCCCc2nc3ccccc3[nH]2)c1` [DCI-019], the “Avg_Inh (%) @ 50uM” value is reported as -8.21% and the “Background (%)” value stood at 33.33%.

Take `Cc1cccc(C)c1N1CC(C(=O)Nc2cccc3ccccc23)CC1=O` (stereo not drawn) [DCI-020]: the “Avg_Inh (%) @ 50uM” value was found to be 10.24% and the “Background (%)” value came to 35.53%.

Regarding `CC1CCCN(C(C)CS(=O)(=O)c2ccc3ccccc3c2)C1` (stereo not drawn) [DCI-021], the “Avg_Inh (%) @ 50uM” value is recorded as -2.20% and the “Background (%)” value came to 37.17%.

Consider `COc1cc2c(cc1OC)C(c1ccc(Br)cc1)OCC2` (stereo not drawn) [DCI-022], for which the “Avg_Inh (%) @ 50uM” value is 34.49% and the “Background (%)” value came out at 44.32%.

In the case of `Cc1ccc(/C=N/Nc2nc3ccccc3[nH]c2=O)cc1` [DCI-023], the “Avg_Inh (%) @ 50uM” value is given as -2.26% and the “Background (%)” value is given as 53.84%.

Take `CC(C)c1ccc(O)c(C(=O)c2cnn(-c3ccccc3)c2)c1` [DCI-024]: the “Avg_Inh (%) @ 50uM” value came out at 45.39% and the “Background (%)” value is listed as 56.24%.

Consider `O=c1c(-c2nc3ccccc3[nH]2)coc2cc(O)ccc12` [DCI-025], for which the “Avg_Inh (%) @ 50uM” value was determined as 9.07% and the “Background (%)” value came out at 66.83%.

`COc1ccc2ccccc2c1/C=C(\C#N)c1nc2ccccc2[nH]1` [DCI-026]: the “Avg_Inh (%) @ 50uM” value amounted to 98.78% and the “Background (%)” value worked out at 66.01%.

Regarding `Cc1sc2nn[nH]c(=O)c2c1C` [DCI-027], the “Avg_Inh (%) @ 50uM” value worked out at 43.67% and the “Background (%)” value amounted to 56.25%.

With `COc1cc2sc3c(=O)[nH]c4ccccc4c3c2cc1OC` [DCI-029], the “Avg_Inh (%) @ 50uM” value is given as -6.51% and the “Background (%)” value was found to be 40.56%.

Consider `CCCC1CCc2c(c3ccccc3[nH]c2=O)O1` (stereo not drawn) [DCI-030], for which the “Avg_Inh (%) @ 50uM” value was determined as 11.57% and the “Background (%)” value came to 45.02%.

For `O=[N+]([O-])C1C(O)c2ccccc2OC1c1ccccc1` (stereo not drawn) [DCI-031], the “Avg_Inh (%) @ 50uM” value was determined as 13.99% and the “Background (%)” value was found to be 39.14%.

Consider `OC1Cc2ccccc2Sc2c(Cl)cccc21` (stereo not drawn) [DCI-033], for which the “Avg_Inh (%) @ 50uM” value amounted to 45.38% and the “Background (%)” value is 34.53%.

Turning to `O=C(NCCCNC(=O)c1cc2ccccc2[nH]1)c1ccc(F)cc1` [DCI-034], the “Avg_Inh (%) @ 50uM” value worked out at 5.04% and the “Background (%)” value was 42.24%.

Take `CN(CCCNc1cc(=O)oc2ccccc12)C(=O)c1ccc(F)cc1` [DCI-035]: the “Avg_Inh (%) @ 50uM” value was 2.22% and the “Background (%)” value was 46.21%.

In the case of `Cc1cccc(NC(=S)NC(=O)c2cc3ccccc3o2)n1` [DCI-036], the “Avg_Inh (%) @ 50uM” value was determined as 76.32% and the “Background (%)” value is on record as 74.58%.

Take `CC(=O)c1nc2ccccc2[nH]1` [DCI-037]: the “Avg_Inh (%) @ 50uM” value stood at 24.85% and the “Background (%)” value is 60.63%.

As to `Cc1cc(=O)c2ccc(C(F)(F)F)cc2[nH]1` [DCI-038], the “Avg_Inh (%) @ 50uM” value worked out at 6.52% and the “Background (%)” value is on record as 60.07%.

Turning to `O=C(CC1Nc2ccccc2NC1=O)NCc1ccccc1` (stereo not drawn) [DCI-039], the “Avg_Inh (%) @ 50uM” value was -1.03% and the “Background (%)” value is 36.31%.

`NNC(=O)c1ccc(COc2ccc3c(c2)CCC3)cc1` [DCI-040]: the “Avg_Inh (%) @ 50uM” value amounted to 40.66% and the “Background (%)” value came out at 31.86%.

On to `CCCn1c(=O)c(C(=O)Nc2ccccc2N)c(O)c2ccccc21` [DCI-041], for which the “Avg_Inh (%) @ 50uM” value came out at 72.23% and the “Background (%)” value is given as 50.76%.

`O=C1OC(c2ccccc2)c2ccc3ccccc3c21` (stereo not drawn) [DCI-042]: the “Avg_Inh (%) @ 50uM” value worked out at 59.00% and the “Background (%)” value is on record as 48.79%.

On to `CCCc1[nH]nc2c1C(c1cccc(O)c1)C(C#N)=C(N)O2` (stereo not drawn) [DCI-043], for which the “Avg_Inh (%) @ 50uM” value is 1.84% and the “Background (%)” value is given as 30.60%.

As for `CCOc1nccc2sc3ccccc3c12` [DCI-044], the “Avg_Inh (%) @ 50uM” value was determined as 44.52% and the “Background (%)” value came to 40.43%.

Turning to `Cc1c(-c2ccccc2)nc(-c2ccccc2)[nH]c1=O` [DCI-045], the “Avg_Inh (%) @ 50uM” value was determined as 11.41% and the “Background (%)” value is 39.40%.

Turning to `O=c1cc(NCCN2CCCC2)c2ccccc2o1` [DCI-047], the “Avg_Inh (%) @ 50uM” value is -3.88% and the “Background (%)” value was determined as 42.54%.

Consider `COc1ccc(-c2nc(=O)cc(-c3ccccc3)o2)cc1` [DCI-048], for which the “Avg_Inh (%) @ 50uM” value amounted to 7.58% and the “Background (%)” value is recorded as 71.51%.

On to `CC(Oc1ccccc1)C(=O)N1CCc2ccccc21` (stereo not drawn) [DCI-049], for which the “Avg_Inh (%) @ 50uM” value came to 1.65% and the “Background (%)” value is listed as 31.42%.

Broadly, the IC50 is the concentration that inhibits the measured activity by half.
